Data from ChEMBL document CHEMBL6153102, “Rational Design, Synthesis, and Biological Evaluation of Novel c-Met Degraders for Lung Cancer Therapy” (J Med Chem, 2025).
Calls of active or inactive are those of the source. The rule behind the calls is not given here.

Assays:
[1] = Metabolic stability in human liver microsome assessed as half life; format: ADME; settings: liver microsomes
[2] = target: T1, Protein cereblon/Hepatocyte growth factor receptor (Homo sapiens, UniProt P08581+Q96SW2); test: PROTAC activity at c-Met/CRBN in human EBC-1 cells assessed as effect on IKZF2 level at 15.6 nM incubated for 24 hrs by proteomics analysis; format: cell-based
Target sequence in this assay (P08581 25-1390 limits assumed): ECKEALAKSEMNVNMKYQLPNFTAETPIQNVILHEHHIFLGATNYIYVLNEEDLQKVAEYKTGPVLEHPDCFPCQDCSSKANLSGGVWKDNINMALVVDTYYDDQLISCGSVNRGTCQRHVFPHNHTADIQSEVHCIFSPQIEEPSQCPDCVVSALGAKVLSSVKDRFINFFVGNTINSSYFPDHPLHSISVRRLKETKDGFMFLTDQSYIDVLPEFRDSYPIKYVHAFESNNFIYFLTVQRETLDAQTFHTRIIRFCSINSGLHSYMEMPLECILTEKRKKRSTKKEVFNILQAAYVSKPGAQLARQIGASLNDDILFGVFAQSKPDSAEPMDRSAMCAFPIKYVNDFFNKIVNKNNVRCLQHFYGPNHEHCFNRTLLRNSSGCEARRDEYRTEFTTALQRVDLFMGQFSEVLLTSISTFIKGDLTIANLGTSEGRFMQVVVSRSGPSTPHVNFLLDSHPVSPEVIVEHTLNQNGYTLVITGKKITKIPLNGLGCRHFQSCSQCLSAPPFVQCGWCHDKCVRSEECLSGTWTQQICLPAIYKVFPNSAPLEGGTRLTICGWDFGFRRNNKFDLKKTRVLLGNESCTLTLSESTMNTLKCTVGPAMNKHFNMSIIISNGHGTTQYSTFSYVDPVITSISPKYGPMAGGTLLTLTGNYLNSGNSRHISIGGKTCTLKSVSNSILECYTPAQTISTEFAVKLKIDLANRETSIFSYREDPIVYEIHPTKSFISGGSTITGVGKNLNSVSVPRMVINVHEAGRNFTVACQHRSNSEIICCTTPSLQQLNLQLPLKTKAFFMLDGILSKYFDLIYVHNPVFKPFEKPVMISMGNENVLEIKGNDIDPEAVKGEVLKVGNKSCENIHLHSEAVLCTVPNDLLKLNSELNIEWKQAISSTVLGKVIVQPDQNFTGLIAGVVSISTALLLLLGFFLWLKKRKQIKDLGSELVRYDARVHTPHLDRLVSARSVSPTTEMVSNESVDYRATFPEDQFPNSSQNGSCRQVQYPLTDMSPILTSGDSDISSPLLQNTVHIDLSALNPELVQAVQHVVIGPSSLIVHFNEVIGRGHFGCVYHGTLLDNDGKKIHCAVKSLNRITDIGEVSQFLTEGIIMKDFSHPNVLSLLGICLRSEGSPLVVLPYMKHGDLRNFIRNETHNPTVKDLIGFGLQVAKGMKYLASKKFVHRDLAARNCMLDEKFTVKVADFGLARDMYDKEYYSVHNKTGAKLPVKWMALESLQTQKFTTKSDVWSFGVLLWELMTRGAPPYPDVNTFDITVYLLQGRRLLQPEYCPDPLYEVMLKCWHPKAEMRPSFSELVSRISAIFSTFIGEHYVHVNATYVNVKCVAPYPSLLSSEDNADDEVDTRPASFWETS
Target sequence in this assay (Q96SW2 whole entry partner): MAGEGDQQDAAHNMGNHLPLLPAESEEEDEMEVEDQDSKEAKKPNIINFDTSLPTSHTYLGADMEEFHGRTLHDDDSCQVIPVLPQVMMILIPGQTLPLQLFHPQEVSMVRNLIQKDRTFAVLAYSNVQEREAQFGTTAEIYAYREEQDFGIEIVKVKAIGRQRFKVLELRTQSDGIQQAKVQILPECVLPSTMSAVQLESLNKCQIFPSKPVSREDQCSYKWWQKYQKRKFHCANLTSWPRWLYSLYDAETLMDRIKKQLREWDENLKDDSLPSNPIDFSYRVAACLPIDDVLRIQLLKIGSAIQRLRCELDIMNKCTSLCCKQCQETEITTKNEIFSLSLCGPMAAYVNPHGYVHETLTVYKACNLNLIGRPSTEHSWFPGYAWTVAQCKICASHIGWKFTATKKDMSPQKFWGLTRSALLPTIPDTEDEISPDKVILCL

EBC-1 [3] = test: Induction of apoptosis in human EBC-1 cells assessed as viable cells at 5 nM incubated for 24 hrs by Annexin V/FITC staining based flow cytometry analysis (reference value: 95.9%); format: functional; settings: read-out: Activity
EBC-1 [4] = test: Induction of apoptosis in human EBC-1 cells assessed as early apoptotic cells at 15 nM incubated for 24 hrs by Annexin V/FITC staining based flow cytometry analysis (reference value: 2.11 %); format: functional
EBC-1 [5] = test: Antitumor activity against human EBC-1 cells xenografted BALB/c nude mouse assessed as reduction in Ki67 expression at 10 to 20 mg/kg, ip administered for 7 days by immunohistochemical analysis; format: functional, organism-based; settings: dose 10-20 mg/kg, time 7.0 day
EBC-1 [6] = test: Induction of apoptosis in human EBC-1 cells assessed as necrotic cells at 50 nM incubated for 24 hrs by Annexin V/FITC staining based flow cytometry analysis (reference value: 0.35 %); format: functional
[7] = Cmax in Sprague-Dawley rat at 5 mg/kg, ip measured upto 24 hrs by LC-MS/MS analysis; format: ADME, organism-based; settings: in vivo
[8] = AUC (0 to t) in Sprague-Dawley rat at 5 mg/kg, ip measured upto 24 hrs by LC-MS/MS analysis; format: ADME, organism-based; settings: in vivo
MKN-45 = test: Antiproliferative activity against human MKN-45 cells assessed as cell viability incubated for 72 hrs by MTT assay; format: functional, cell-based; settings: MKN-45, 72 h
[9] = target: T1, Protein cereblon/Hepatocyte growth factor receptor; test: PROTAC activity at c-Met/CRBN in human A549 cells assessed as induction of c-Met degradation incubated for 24 hrs by Western blotting analysis; format: cell-based
Target sequence in this assay (P08581 whole entry): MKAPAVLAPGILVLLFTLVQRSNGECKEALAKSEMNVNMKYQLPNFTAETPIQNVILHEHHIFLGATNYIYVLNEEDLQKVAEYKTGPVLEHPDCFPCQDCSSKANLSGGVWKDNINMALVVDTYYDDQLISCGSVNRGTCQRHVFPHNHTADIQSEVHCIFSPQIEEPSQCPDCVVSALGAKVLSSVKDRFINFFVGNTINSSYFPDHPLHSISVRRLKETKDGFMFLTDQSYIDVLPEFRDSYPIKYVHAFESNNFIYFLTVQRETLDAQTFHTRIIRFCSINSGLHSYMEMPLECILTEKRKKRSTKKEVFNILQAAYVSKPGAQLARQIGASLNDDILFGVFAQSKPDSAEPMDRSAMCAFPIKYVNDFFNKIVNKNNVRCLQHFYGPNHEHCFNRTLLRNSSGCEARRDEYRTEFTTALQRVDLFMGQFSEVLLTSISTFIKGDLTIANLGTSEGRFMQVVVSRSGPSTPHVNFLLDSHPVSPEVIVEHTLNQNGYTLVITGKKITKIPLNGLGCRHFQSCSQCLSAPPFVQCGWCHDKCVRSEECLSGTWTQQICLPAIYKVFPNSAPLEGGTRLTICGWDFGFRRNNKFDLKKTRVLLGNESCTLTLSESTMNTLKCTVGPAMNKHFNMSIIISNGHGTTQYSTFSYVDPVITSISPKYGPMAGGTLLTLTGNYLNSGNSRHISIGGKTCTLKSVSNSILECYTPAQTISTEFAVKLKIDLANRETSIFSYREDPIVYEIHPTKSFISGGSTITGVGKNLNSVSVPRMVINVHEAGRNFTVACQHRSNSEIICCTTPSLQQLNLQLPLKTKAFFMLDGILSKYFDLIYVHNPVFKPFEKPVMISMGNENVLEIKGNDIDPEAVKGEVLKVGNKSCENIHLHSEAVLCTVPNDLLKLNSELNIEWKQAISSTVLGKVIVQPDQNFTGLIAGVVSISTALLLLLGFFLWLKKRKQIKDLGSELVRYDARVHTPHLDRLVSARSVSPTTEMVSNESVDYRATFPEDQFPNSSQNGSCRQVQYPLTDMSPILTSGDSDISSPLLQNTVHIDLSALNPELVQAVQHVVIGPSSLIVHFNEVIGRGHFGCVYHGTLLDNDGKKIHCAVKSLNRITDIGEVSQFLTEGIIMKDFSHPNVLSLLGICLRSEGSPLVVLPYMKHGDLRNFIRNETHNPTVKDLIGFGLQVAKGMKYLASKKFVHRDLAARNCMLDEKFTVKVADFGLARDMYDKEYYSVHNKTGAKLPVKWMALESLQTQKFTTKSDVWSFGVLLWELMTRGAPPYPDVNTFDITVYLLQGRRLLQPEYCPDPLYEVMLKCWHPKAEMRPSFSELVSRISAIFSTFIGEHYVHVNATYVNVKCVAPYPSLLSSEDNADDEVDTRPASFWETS
Target sequence in this assay (Q96SW2 whole entry): as the sequence (Q96SW2 whole entry partner) above

[10] = target: T1, Protein cereblon/Hepatocyte growth factor receptor; test: PROTAC activity at c-Met/CRBN in human EBC-1 cells assessed as reduction in IFRD1 level at 15.6 nM incubated for 24 hrs by proteomics analysis; format: cell-based
Target sequence in this assay (P08581 25-1390 limits assumed): as the sequence (P08581 25-1390 limits assumed) above
Target sequence in this assay (Q96SW2 whole entry partner): as the sequence (Q96SW2 whole entry partner) above

EBC-1 [11] = test: PROTAC activity at c-Met Y1230C mutant /CRBN in human EBC-1 cells assessed as induction of c-Met degradation up to 1000 nM incubated for 24 hrs by Western blotting analysis; format: cell-based
[12] = target: T1, Protein cereblon/Hepatocyte growth factor receptor; test: PROTAC activity at c-Met/CRBN in human HCT-116 cells assessed as induction of c-Met degradation at 100 nM incubated for 24 hrs by Western blotting analysis relative to control; format: cell-based
Target sequence in this assay (P08581 25-1390 limits assumed): as the sequence (P08581 25-1390 limits assumed) above
Target sequence in this assay (Q96SW2 whole entry partner): as the sequence (Q96SW2 whole entry partner) above

[13] = target: T1, Protein cereblon/Hepatocyte growth factor receptor; test: PROTAC activity at c-Met/CRBN in human EBC-1 cells assessed as reduction in c-Met level at 3.9 to 125 nM incubated for 24 hrs in presence of MG132 by Western blot analysis; format: cell-based; settings: dose 3.9-125 nM
Target sequence in this assay (P08581 25-1390 limits assumed): as the sequence (P08581 25-1390 limits assumed) above
Target sequence in this assay (Q96SW2 whole entry partner): as the sequence (Q96SW2 whole entry partner) above

EBC-1 [14] = test: Antitumor activity against human EBC-1 cells xenografted BALB/c nude mouse assessed as reduction in tumor volume at 20 mg/kg, ip administered for 7 days; format: functional; design: scale not given: the % may be the effect or the level left; settings: time 7 day
EBC-1 [15] = test: Induction of apoptosis in human EBC-1 cells assessed as viable cells at 15 nM incubated for 24 hrs by Annexin V/FITC staining based flow cytometry analysis (reference value: 95.9%); format: functional; settings: read-out: Activity
[16] = target: T1, Protein cereblon/Hepatocyte growth factor receptor; test: PROTAC activity at c-Met/CRBN in human A549 cells assessed as reduction in c-Met level at 3.9 to 125 nM incubated for 24 hrs in presence of tepotinib by Western blot analysis; format: cell-based; settings: dose 3.9-125 nM
Target sequence in this assay (P08581 25-1390 limits assumed): as the sequence (P08581 25-1390 limits assumed) above
Target sequence in this assay (Q96SW2 whole entry partner): as the sequence (Q96SW2 whole entry partner) above

[17] = AUC (0 to t) in Sprague-Dawley rat at 2 mg/kg, iv measured upto 24 hrs by LC-MS/MS analysis; format: ADME, organism-based; settings: in vivo
[18] = target: T1, Protein cereblon/Hepatocyte growth factor receptor; test: PROTAC activity at c-Met/CRBN in human EBC-1 cells assessed as reduction in TFPI2 level at 15.6 nM incubated for 24 hrs by proteomics analysis; format: cell-based
Target sequence in this assay (P08581 25-1390 limits assumed): as the sequence (P08581 25-1390 limits assumed) above
Target sequence in this assay (Q96SW2 whole entry partner): as the sequence (Q96SW2 whole entry partner) above

[19] = Half life in Sprague-Dawley rat at 5 mg/kg, ip measured upto 24 hrs by LC-MS/MS analysis; format: ADME, organism-based; settings: in vivo
[20] = target: T1, Protein cereblon/Hepatocyte growth factor receptor; test: PROTAC activity at c-Met/CRBN in human EBC-1 cells assessed as effect on SALL4 level at 15.6 nM incubated for 24 hrs by proteomics analysis; format: cell-based
[21] = Cmax in Sprague-Dawley rat at 2 mg/kg, iv measured upto 24 hrs by LC-MS/MS analysis; format: ADME, organism-based; settings: in vivo
[22] = target: T1, Protein cereblon/Hepatocyte growth factor receptor; test: PROTAC activity at c-Met/CRBN in human EBC-1 cells assessed as induction of c-Met degradation at 100 nM incubated for 24 hrs by Western blotting analysis relative to control; format: cell-based
[23] = target: T1, Protein cereblon/Hepatocyte growth factor receptor; test: PROTAC activity at c-Met/CRBN in human EBC-1 cells assessed as reduction in HELLS level at 15.6 nM incubated for 24 hrs by proteomics analysis; format: cell-based
[24] = Stability in rat plasma assessed as half life; format: ADME, cell-free
[25] = Half life in Sprague-Dawley rat at 2 mg/kg, iv measured upto 24 hrs by LC-MS/MS analysis; format: ADME, organism-based; settings: in vivo
[26] = target: T1, Protein cereblon/Hepatocyte growth factor receptor; test: PROTAC activity at c-Met/CRBN in human EBC-1 cells assessed as reduction in UHRF1 level at 15.6 nM incubated for 24 hrs by proteomics analysis; format: cell-based
[27] = target: T1, Protein cereblon/Hepatocyte growth factor receptor; test: PROTAC activity at c-Met/CRBN in human HCT-116 cells assessed as induction of c-Met degradation at 15.6 nM by Western blotting analysis; format: cell-based; settings: time 72.0 hrs
[28] = target: T1, Protein cereblon/Hepatocyte growth factor receptor; test: PROTAC activity at c-Met/CRBN in human EBC-1 cells assessed as induction of c-Met degradation at 15.6 nM incubated for 72 hrs by Western blotting analysis relative to control; format: cell-based
EBC-1 [29] = test: Induction of apoptosis in human EBC-1 cells assessed as necrotic cells at 15 nM incubated for 24 hrs by Annexin V/FITC staining based flow cytometry analysis (reference value: 0.35 %); format: functional
[30] = Toxicity in BALB/c nude mouse assessed as kidney damage at 10 to 20 mg/kg, ip administered for 7 days by H and E staining based analysis; format: organism-based; settings: in vivo, 168 h, dose 10-20 mg/kg, time 7 day
[31] = target: T1, Protein cereblon/Hepatocyte growth factor receptor; test: PROTAC activity at c-Met/CRBN in human A549 cells assessed as induction of c-Met degradation at 15.6 nM by Western blotting analysis; format: cell-based; settings: time 72.0 hrs
EBC-1 [32] = test: Induction of apoptosis in human EBC-1 cells assessed as early apoptotic cells at 5 nM incubated for 24 hrs by Annexin V/FITC staining based flow cytometry analysis (reference value: 2.11 %); format: functional
[33] = target: T1, Protein cereblon/Hepatocyte growth factor receptor; test: PROTAC activity at c-Met/CRBN in human EBC-1 cells assessed as induction of c-Met degradation at 15.6 nM by Western blotting analysis; format: cell-based; settings: time 72.0 hrs
[34] = target: T1, Protein cereblon/Hepatocyte growth factor receptor; test: PROTAC activity at c-Met/CRBN in human EBC-1 cells assessed as reduction in c-Met level at 3.9 to 125 nM incubated for 24 hrs in presence of tepotinib by Western blot analysis; format: cell-based; settings: dose 3.9-125 nM

## COc1ccc(C(=O)N2CCC3(CCN(C(=O)CN4CCC(COc5cnc(-c6cccc(Cn7nc(-c8cccc(C#N)c8)ccc7=O)c6)nc5)CC4)CC3)CC2)cc1N1CCC(=O)NC1=O
[1]
  half-life: 0.362 h
[2]
  Activity: No effect
EBC-1 [3]
  viability at 0.005 µM: 66.4%
EBC-1 [4]
  Activity: 30.8%
EBC-1 [5]
  Activity: inactive
EBC-1 [6]
  Activity: 0.6%
[7]
  Cmax: 104 ng/mL
[8]
  AUCt: 655 ng·h/mL
MKN-45
  IC50: 0.01 µM
[9]
  DC50: < 0.0156 µM
[10]
  Activity: Active
EBC-1 [11]
  Activity: Active
[12]
  Activity: inactive
[13]
  Activity: Active
EBC-1 [14]
  Activity: 86.14%
EBC-1 [15]
  viability at 0.015 µM: 65%
[16]
  Activity: inactive
[17]
  AUCt: 532 ng·h/mL
[18]
  Activity: Active
[19]
  half-life: 5.49 h
[20]
  Activity: No effect
[21]
  Cmax: 2380 ng/mL
[22]
  Activity: 90.3%
[23]
  Activity: Active
[24]
  half-life: > 2 h
[25]
  t1/2: 6.9 h
[26]
  Activity: Active
[27]
  Activity: Time-dependent-effect
[28]
  Activity: 93.1%
EBC-1 [29]
  Activity: 0.58%
[30]
  Activity: Non-toxic
[31]
  Activity: Time-dependent-effect
EBC-1 [32]
  Activity: 29.7%
[33]
  Activity: Time-dependent-effect
[34]
  Activity: inactive
